Drawing on ChEMBL document CHEMBL3507680, “University of Dundee, Gates Library screen for HepG2 cell viability”, this text covers cytotoxicity for 101 molecules.

Each structure is given as a SMILES string.

This data set is described as follows: Human HepG2 cell viability assay in 384 well format. Format: toxicity, cell-based. Details: dose 125 nL, time 70.5 hour; cytotoxicity at 70.5 h: concentration not given beside the values. Conditions: HepG2 cells, read-out: Inhibition.

As to `NC(=O)CN1C[C@@H](c2ccccc2F)[C@@]2(CCCCC(=O)N2)C1`, the cytotoxicity at 70.5 h was -7.09%.
On to `Cc1nn(C)cc1C(=O)N1CCC(C(=O)c2nc3ccccc3s2)CC1`, for which the cytotoxicity at 70.5 h is -4.17%.
With `CN(C(=O)c1ccncc1)c1nnc(C2CCOC2)s1` (stereo unspecified), the cytotoxicity at 70.5 h is -5.28%.
As to `Cc1nn(C)c(C)c1-c1ccc(=O)n(C(C)C(=O)NCc2ccco2)n1` (stereo unspecified), the cytotoxicity at 70.5 h was -7.42%.
`CCc1c(C)nc2cc(-c3nccn3C)nn2c1N1CCCC(CO)C1` (stereo unspecified): the cytotoxicity at 70.5 h is 27.9%.
For `Cn1ccnc1C(O)c1ccccc1N1CCN(CC2CCCC2)CC1` (stereo unspecified), the cytotoxicity at 70.5 h was -3.89%.
Take `Cc1cc(-c2cnc(N3CCCC(C)C3)nc2C(C)C)on1` (stereo unspecified): the cytotoxicity at 70.5 h amounted to 18.8%.
In the case of `CCC(=O)NCCc1cc2nc(-c3ccncc3)ccn2n1` it was -5.77%; in that of `Cc1nc2cc(C3CCN(C(=O)c4ccccn4)CC3)nn2c(O)c1C`, 44.6%; in that of `Cc1ncc(C(=O)N2CC(C(=O)N3CCOCC3)C2)c(C)n1`, -12.5%.
In the case of `O=C(Cn1c(=O)n(Cc2ccco2)c2ncccc21)NC1CCCC1` it was -7.12%.
Under `Cc1cc(-c2cnc(N3CCOCC3)nc2-c2ccc(C)s2)on1` stands -3.57%; under `Cc1cc(-c2cnc(N3CCSCC3)nc2-c2ccc(C)s2)on1`, -7.01%; under `Cc1cc(-c2cnc(N3CCCC3)nc2-c2ccc(C)s2)on1`, -6.38%.
With `COCCC(=O)N1CCCC1c1csc(Nc2ccccn2)n1` (stereo unspecified), the cytotoxicity at 70.5 h was determined as 21.7%.
`CNc1ccc(CC2CCCN(C(=O)c3cccc(C)n3)C2)nn1` (stereo unspecified): the cytotoxicity at 70.5 h was -0.376%.
Under `COCC(=O)N1CCCC(c2cccc(-n3ccnc3)n2)C1` (stereo unspecified) stands 4.64%; under `COc1ccc(C)cc1CC(=O)N1CC[C@@]2(CCCO2)[C@@H](O)C1`, -5.66%.
Take `CO[C@H]1CN(Cc2cc(F)ccc2F)CC[C@@]12CCCO2`: the cytotoxicity at 70.5 h is -2.25%.
Under `Cc1cnccc1CN1CC[C@H](Oc2cccc(F)c2)[C@@](C)(O)C1` stands 0.441%.
Take `C[C@]1(O)CN(Cc2cccc(C(=O)O)c2)CC[C@@H]1Oc1cccc(F)c1`: the cytotoxicity at 70.5 h was -4.99%.
As for `CN(C)c1ccc(CC2COCCN(Cc3nccn3C)C2)nn1` (stereo unspecified), the cytotoxicity at 70.5 h is -0.733%.
For the molecule `NC(=O)CN1CCC(c2cc(C(F)(F)F)n3ccnc3n2)CC1`, the cytotoxicity at 70.5 h is -3.15%.
Under `Cc1cccc(Nc2cc(C)nc(C3CCCCN3CC(N)=O)n2)n1` (stereo unspecified) stands -4.2%; under `CCn1ccc(C(=O)N2CCOC(c3nc(-c4cccs4)no3)C2)n1` (stereo unspecified), -4.33%.
In the case of `COCC(=O)N1CCCC1c1nccnc1Nc1ncccn1` (stereo unspecified) it was -3.81%; in that of `Cc1c[nH]nc1C1CCCN(C(=O)c2c(C)noc2C)C1` (stereo unspecified), -1.16%; in that of `Cn1nccc1CCC(=O)N1CCCC(Cc2cccnc2)C1` (stereo unspecified), -5.31%.
On to `CNc1cncc(C2CCCN2Cc2ccn(C)n2)n1` (stereo unspecified), for which the cytotoxicity at 70.5 h is -1.7%.
Under `Cc1ncsc1C(=O)N1CCC(O)(CN2CCc3ccccc3C2)C1` (stereo unspecified) stands 10.1%.
In the case of `Cc1ccc(C(=O)N2CCC(O)(CN3CCc4ccccc4C3)C2)s1` (stereo unspecified) it was -2.78%.
Under `CCc1nccn1-c1cncc(C2CCCN2Cc2ccccn2)n1` (stereo unspecified) stands -7.66%; under `Cc1ccn(CCC(=O)N2CCCC(Cc3cccnc3)C2)n1` (stereo unspecified), -5.66%.
With `Cc1ncsc1-c1nnc(C2CCN(Cc3ccccc3)CC2)o1`, the cytotoxicity at 70.5 h was -1.36%.
On to `COCC(=O)N1CCCC1c1cc(N2CCN(C(C)=O)CC2)cc(C)n1` (stereo unspecified), for which the cytotoxicity at 70.5 h is 22.7%.
Under `NC[C@H]1CC[C@H](C(NC(=O)C2CC2)c2ccccn2)CC1` (stereo partly specified) stands -6.56%; under `CC(=O)N1CCCC1c1cc(N2CCN(CC3CC3)CC2)cc(C)n1` (stereo unspecified), -1.76%; under `CC(=O)N1CCCCC1c1nc2c(c(NC3CCCC3)n1)CN(C)CC2` (stereo unspecified), 17%.
In the case of `COc1cccc(C(=O)N2CCCC2c2ncc3c(n2)CCN(C)C3)c1` (stereo unspecified) it was -0.392%; in that of `CCCC(=O)N1CCc2nc3cc(OC)c(OC)cc3c(=O)n2CC1`, -5.67%.
With `CC(=O)NC[C@]1(O)CCN(C(=O)c2ccc(F)c(Cl)c2)C[C@H]1O`, the cytotoxicity at 70.5 h was -6.22%.
With `Cc1ccsc1CN(CCCN(C)C)Cc1ccccn1`, the cytotoxicity at 70.5 h was -3.09%.
In the case of `Cc1ccsc1C(=O)N1CCC2(CC(N(C)c3ccncn3)C2)C1` (stereo unspecified) it was -4.77%; in that of `Cc1csc(C(=O)N2CCC3(CC(N(C)c4ccncn4)C3)C2)c1` (stereo unspecified), -5.37%; in that of `Nc1cc(CCC2CN(Cc3ccc4c(c3)OCCO4)CCO2)ccn1` (stereo unspecified), 0.977%.
For the molecule `Nc1cc(CCC2CN(Cc3ccc4cc[nH]c4c3)CCO2)ccn1` (stereo unspecified), the cytotoxicity at 70.5 h was determined as 20.8%.
On to `CN(c1ccncn1)C1CC2(CCN(C(=O)Cc3cccs3)C2)C1` (stereo unspecified), for which the cytotoxicity at 70.5 h is -6.91%.
In the case of `Cc1csc(C(=O)N2CC[C@H](Oc3cccnc3C)[C@@H](O)CC2)c1`, the cytotoxicity at 70.5 h came to 14%.
For the molecule `Cn1ccc(C(=O)N2CCC(Cc3cccc4ncccc34)C2)n1` (stereo unspecified), the cytotoxicity at 70.5 h was -1.84%.
As to `C[C@]1(O)CN(CC(=O)N2CCCC2)CC[C@@H]1Oc1cccc(F)c1`, the cytotoxicity at 70.5 h came out at 17.5%.
Regarding `CC(C)c1nccn1-c1cccc(C2CCCN(S(=O)(=O)N(C)C)C2)n1` (stereo unspecified), the cytotoxicity at 70.5 h was -3.37%.
In the case of `O=C(c1cnccn1)N1CCCC(Cc2cccc3ncccc23)C1` (stereo unspecified) it was -4.96%.
As to `CNc1ccc(CC2CCCN(C(=O)c3cnco3)C2)nn1` (stereo unspecified), the cytotoxicity at 70.5 h is -9.21%.
Under `O=C(c1cnccn1)N1CCCC(c2cccc(-n3ccnc3)n2)C1` (stereo unspecified) stands 11.1%.
Consider `OCCC1(NCc2ccc(-n3cccn3)cc2)CCOCC1`, for which the cytotoxicity at 70.5 h was -2.65%.
As to `O=C(O)c1ccn(-c2ccc(NC(=O)c3ccccc3Cl)cc2)n1`, the cytotoxicity at 70.5 h worked out at 11.9%.
Under `CCC(c1ccc(F)cc1F)S(=O)(=O)CCO` (stereo unspecified) stands -1.73%.
Regarding `CCC(c1ccccc1)S(=O)(=O)CCO` (stereo unspecified), the cytotoxicity at 70.5 h is -2.1%.
Under `CN1CCN(CCNC(=O)c2sccc2C2CC2)CC1` stands -2.66%; under `CN(Cc1ccc(F)cc1)Cc1cc2c(cc1Br)OCCO2`, -8.04%; under `CC(C)(C)NC(=O)CN1CCCNCC1`, -0.58%.
In the case of `CN(Cc1ccccc1F)Cc1cc2c(cc1Br)OCCO2` it was -9.57%.
In the case of `Cn1ccnc1CN1CCCC1CCc1ccccc1` (stereo unspecified) it was 2.44%; in that of `Cc1csc(C(C)(C)NCCOc2ccc(CC#N)cc2)n1`, -0.219%.
For `Cc1cnn(CCNCC(=O)N2CCN(c3ccccn3)CC2)c1`, the cytotoxicity at 70.5 h was 8.76%.
Under `CS(=O)(=O)c1ccc(NC(=O)NCCC2=CCCCC2)cc1` stands -10.3%; under `COCc1ccccc1NC(=O)CCNC(=O)c1ccoc1`, -13.1%; under `CN(CCc1ccccn1)C(=O)Nc1cccnc1-n1cccn1`, -16.2%.
In the case of `FC(F)(F)c1nc(NC2CCc3ncnn3C2)c2ccccc2n1` (stereo unspecified) it was 24.8%.
In the case of `COC(=O)C1CCN(C(=O)Cn2ccc(-c3ccc(F)cc3)n2)CC1` it was -8.67%; in that of `O=C(Cn1ccc(-c2ccccc2)n1)N1CCN(C(=O)C2CC2)CC1`, -2.62%.
For `Cc1cnn(CCNCC(=O)N2CCN(c3ncccn3)CC2)c1`, the cytotoxicity at 70.5 h is -4.23%.
Under `Cc1sc2ccccc2c1S(=O)(=O)NCCNC(=O)C(C)C` stands -7.05%.
Under `COCc1c(Cl)cccc1NC(=O)CNC(=O)C(C)(C)C` stands -4.66%.
For `CCc1cccnc1NCc1cnc(N2CCOCC2)nc1`, the cytotoxicity at 70.5 h was found to be 20.6%.
In the case of `CCOCCC(=O)Nc1cccc(Cl)c1COC`, the cytotoxicity at 70.5 h is -2.76%.
Under `COc1cccc(CC2CCCN2Cc2nccn2C)c1` (stereo unspecified) stands -5%.
Under `CC(NC(=O)N1CCCN(CC(F)F)CC1)c1ccco1` (stereo unspecified) stands -8.42%; under `CCOCCC(=O)N1CCCC(c2cc(C(F)(F)F)[nH]n2)C1` (stereo unspecified), -10.6%.
Consider `CC(CNC(=O)c1ccco1)N1CCc2sccc2C1` (stereo unspecified), for which the cytotoxicity at 70.5 h is -4.45%.
In the case of `Cc1nn(C)c2ncc(C(=O)N3CCNC(=O)C3)cc12` it was -3.66%.
Under `CC(=O)N(C)CC(=O)NC(C)c1ccc(OCCC(C)C)cc1` (stereo unspecified) stands -3.81%; under `Cc1nn(C)c2ncc(NC(=O)N3CCNC(=O)C3)cc12`, -6.74%.
Regarding `CC(C)CCOc1ccc(C(C)NC(=O)CSCC(N)=O)cc1` (stereo unspecified), the cytotoxicity at 70.5 h was -8.07%.
Under `CC(C)OCCC(=O)NCC(c1c(F)cccc1F)N(C)C` (stereo unspecified) stands 22.3%; under `CC(C)CC(=O)NCC(O)c1c(F)cccc1F` (stereo unspecified), -7.25%.
`Cc1nc2cc(-c3nccn3C)nn2c(N2CCC(O)CC2)c1C`: the cytotoxicity at 70.5 h is -3.32%.
Take `Cc1nc(NCc2ccc(F)cc2)cc(C2CCCN2)n1` (stereo unspecified): the cytotoxicity at 70.5 h is -2.67%.
Under `Cn1ccnc1CNC(=O)c1ccnc(C2CCNCC2)c1` stands -6.57%; under `O=C(NCC(F)F)c1cnc(C2CCCN2)cn1` (stereo unspecified), -3.12%.
In the case of `NCC(=O)N1CCCC1c1nccnc1Nc1ncccn1` (stereo unspecified), the cytotoxicity at 70.5 h was -1.95%.
Regarding `COc1ncc(C2(O)CCN(Cc3ccc(F)c(F)c3)CC2)c(OC)n1`, the cytotoxicity at 70.5 h is -3.5%.
For the molecule `COc1ccc(-c2ccc(C3CNCCO3)nc2)cc1` (stereo unspecified), the cytotoxicity at 70.5 h was -5.61%.
In the case of `COc1ccc(-c2n[nH]cc2CNC2CCN(C3CC3)CC2)cc1` it was -2.67%; in that of `CNc1cc(C2CCCNC2)nc(C)n1` (stereo unspecified), 16.2%.
Under `COc1ccccc1CN(Cc1cccnc1)CC1CCCO1` (stereo unspecified) stands -1.02%; under `CN(C)CCN(C(=O)Cc1ccc2c(c1)OCCO2)C1CCN(C)CC1`, 2.11%; under `CCCN(Cc1cccnc1)C1CC(C)(C)NC(C)(C)C1`, -3.34%.
`CC1(C)CC(N(Cc2cccnc2)Cc2cccc(F)c2)CC(C)(C)N1`: the cytotoxicity at 70.5 h was 2.01%.
Take `CCCOc1ccccc1CN[C@@H]1CCC[C@H]1Cc1cc(C)no1`: the cytotoxicity at 70.5 h is 23.6%.
Under `Cc1cc(C[C@@H]2CCC[C@H]2NCc2cc(F)ccc2F)on1` stands -1.78%.
